Test results reported in the NIST ThermoML archive (doi:10.1016/j.jct.2009.06.016).
± gives the expanded uncertainty stated by the source.

Legend:
[1] = 101 kPa, Liquid, Vibrating tube method
[2] = xn = mol fraction of the nth substance listed; details: 283.15 K; 101 kPa; Liquid; Vibrating tube method; x2 = 0

Structure (SMILES) | mass density ([1]; 283.15 K) | mass density ([1]; 288.15 K) | mass density ([1]; 293.15 K) | mass density ([1]; 298.15 K) | mass density ([1]; 303.15 K) | mass density [2]
CCCOCC(C)O (configuration not stated) [1-propoxy-2-propanol] | 894.462 ± 0.23 kg/m3 | 889.963 ± 0.23 kg/m3 | 885.456 ± 0.23 kg/m3 | 880.837 ± 0.23 kg/m3 | 876.279 ± 0.23 kg/m3 | 
O [water] | 999.699 ± 0.05 kg/m3 |  |  |  |  | 
O [water] + CCCOCC(C)O |  |  |  |  |  | 999.699 ± 0.05 kg/m3
